Measurements from patent US11136317B2, “NADPH oxidase 4 inhibitors” (ACTELION PHARMACEUTICALS LTD, priority 2015, dated 2021).

Each compound was assayed against T1, human NOX4 (Homo sapiens, UniProt Q9NPH5) (assay: Amplex Red activity assay (cellular H2O2 formation in hNOX4 T-REx-293 cells)). Settings: tet-induced 24 h, extracellular H2O2 by Amplex Red, 60 min 25° C., geometric mean if determined several times.
T1 construct: The full-length human NOX4 (NM_016931.3) transcript was cloned; expressed in transfected cells
T1 sequence (Q9NPH5 1-578): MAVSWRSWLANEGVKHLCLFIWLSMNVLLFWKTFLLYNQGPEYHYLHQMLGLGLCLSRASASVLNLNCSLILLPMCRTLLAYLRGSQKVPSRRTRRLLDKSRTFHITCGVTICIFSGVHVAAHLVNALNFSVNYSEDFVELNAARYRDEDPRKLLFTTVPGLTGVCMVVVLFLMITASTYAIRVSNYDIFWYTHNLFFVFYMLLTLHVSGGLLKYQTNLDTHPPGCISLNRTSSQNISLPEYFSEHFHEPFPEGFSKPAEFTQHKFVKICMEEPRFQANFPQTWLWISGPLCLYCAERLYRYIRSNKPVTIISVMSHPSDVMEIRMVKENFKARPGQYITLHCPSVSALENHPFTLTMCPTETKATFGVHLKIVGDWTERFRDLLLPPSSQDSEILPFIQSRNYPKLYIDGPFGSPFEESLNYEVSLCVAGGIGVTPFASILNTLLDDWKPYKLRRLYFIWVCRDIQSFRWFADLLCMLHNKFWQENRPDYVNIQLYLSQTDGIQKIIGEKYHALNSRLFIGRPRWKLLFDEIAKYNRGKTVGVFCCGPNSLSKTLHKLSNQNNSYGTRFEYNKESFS
T1 sequence (P13498 1-195 partner): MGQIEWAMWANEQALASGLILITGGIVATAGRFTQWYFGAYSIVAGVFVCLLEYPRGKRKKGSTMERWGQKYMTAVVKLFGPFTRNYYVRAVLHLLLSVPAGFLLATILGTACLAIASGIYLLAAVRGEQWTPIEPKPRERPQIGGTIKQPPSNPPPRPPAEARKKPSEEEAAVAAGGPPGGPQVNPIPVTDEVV
Assay type: cell-based
Outline: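 Tet-induced (1 μg/mL, 24 h) HEK293 T-REx cells stably expressing full-length human NOX4, 20 000 cells/well, exposed to compounds (10 concentrations, 50 μM to 100 nM; 1.25% DMSO) for 60 min at 25°C. Extracellular H2O2 detected by Amplex Red resorufin fluorescence (ex 550/em 600 nm) versus vehicle; IC50 calculated.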

Compared with `O=C(Nc1ccc2oc(N3CCC(F)(F)C3)nc2c1)c1ccc2c(c1)CCO2` [Example 9, 2,3-Dihydro-benzofuran-5-carboxylic acid [2-(3,3-difluoro-pyrrolidin-1-yl)-benzooxazol-5-yl]-amide], `O=C(Nc1ccc2oc(N3CCC(F)(F)CC3)nc2c1)c1ccc2c(c1)CCCO2` [Example 149, Chroman-6-carboxylic acid [2-(4,4-difluoro-piperidin-1-yl)-benzooxazol-5-yl]-amide] is 2.5-fold higher in IC50: 0.573 µM for the first, 1.43 µM for the second.

`O=C(Nc1ccc2oc(N3CC(O)C3)nc2c1)c1ccc2c(c1)OCO2` [Example 122, Benzo[1,3]dioxole-5-carboxylic acid [2-(3-hydroxy-azetidin-1-yl)-benzooxazol-5-yl]-amide] and `CN1CCN(c2nc3cc(NC(=O)c4ccc5c(c4)OCO5)ccc3o2)CC1` [Example 137, Benzo[1,3]dioxole-5-carboxylic acid [2-(4-methyl-piperazin-1-yl)-benzooxazol-5-yl]-amide] are within 1.5-fold of each other in IC50: 2.11 µM for the first, 1.64 µM for the second.

Compared with `O=C(Nc1ccc2oc(N3CC(c4ccccc4)C3)nc2c1)c1ccc2c(c1)CCO2` [Example 49, 2,3-Dihydro-benzofuran-5-carboxylic acid [2-(3-phenyl-azetidin-1-yl)-benzooxazol-5-yl]-amide], `O=C(Nc1ccc2oc(N3CCC3)nc2c1)c1ccc2c(c1)CCO2` [Example 118, 2,3-Dihydro-benzofuran-5-carboxylic acid (2-azetidin-1-yl-benzooxazol-5-yl)-amide] is 2.4-fold lower in IC50: 1.23 µM for the first, 0.504 µM for the second. The second is the more potent here.

Compared with `O=C(Nc1ccc2sc(N3CC4(CCO4)C3)nc2c1)c1ccc2c(c1)CCO2` [Example 104, 2,3-Dihydro-benzofuran-5-carboxylic acid [2-(1-oxa-6-aza-spiro[3.3]hept-6-yl)-benzothiazol-5-yl]-amide], `O=C(Nc1ccc2sc(N3CCOCC3)nc2c1)c1ccc2c(c1)CCO2` [Example 82, 2,3-Dihydro-benzofuran-5-carboxylic acid (2-morpholin-4-yl-benzothiazol-5-yl)-amide] is 2.9-fold lower in IC50: 6.87 µM for the first, 2.35 µM for the second. The second is the more potent here.

First: O=C(Nc1ccc2oc(N3CCCC4(COC4)C3)nc2c1)c1ccc2c(c1)CCO2 [Example 55, 2,3-Dihydro-benzofuran-5-carboxylic acid [2-(2-oxa-6-aza-spiro[3.5]non-6-yl)-benzooxazol-5-yl]-amide]
Second: O=C(Nc1ccc2oc(N3CCC4(CC3)COC4)nc2c1)c1ccc2c(c1)CCCO2 [Example 153, Chroman-6-carboxylic acid [2-(2-oxa-7-aza-spiro[3.5]non-7-yl)-benzooxazol-5-yl]-amide]
The IC50 of the first is 3.2-fold lower: 0.4 µM for the first, 1.3 µM for the second. The first is the more potent here.

`COC1CCCN(c2nc3cc(NC(=O)c4ccc5c(c4)CCO5)ccc3s2)C1` (stereo not drawn) [Example 108, 2,3-Dihydro-benzofuran-5-carboxylic acid [2-(3-methoxy-piperidin-1-yl)-benzothiazol-5-yl]-amide] and `COC1CCN(c2nc3cc(NC(=O)c4ccc5c(c4)CCO5)ccc3s2)CC1` [Example 95, 2,3-Dihydro-benzofuran-5-carboxylic acid [2-(4-methoxy-piperidin-1-yl)-benzothiazol-5-yl]-amide] are within 1.5-fold of each other in IC50: 2.54 µM for the first, 2.14 µM for the second.

Going from `COCC1CCCN1c1nc2cc(NC(=O)c3ccc4c(c3)CCO4)ccc2s1` (stereo not drawn) [Example 113, 2,3-Dihydro-benzofuran-5-carboxylic acid [2-(2-methoxymethyl-pyrrolidin-1-yl)-benzothiazol-5-yl]-amide] to `CCOCC1CCCN1c1nc2cc(NC(=O)c3ccc4c(c3)CCO4)ccc2s1` (stereo not drawn) [Example 107, 2,3-Dihydro-benzofuran-5-carboxylic acid [2-(2-ethoxymethyl-pyrrolidin-1-yl)-benzothiazol-5-yl]-amide], the IC50 rises from 3.25 µM to 9.51 µM (2.9-fold). The first is the more potent here.

`O=C(Nc1ccc2oc(N3CCC[C@@H](O)C3)nc2c1)c1ccc2c(c1)CCO2` [Example 42, (R)—N-(2-(3-hydroxypiperidin-1-yl)benzo[d]oxazol-5-yl)-2,3-dihydrobenzofuran-5-carboxamide] and `O=C(Nc1ccc2oc(N3CC[C@H](O)C3)nc2c1)c1ccc2c(c1)CCO2` [Example 46, 2,3-Dihydro-benzofuran-5-carboxylic acid [2-((S)-3-hydroxy-pyirolidin-1-yl)-benzooxazol-5-yl]-amide] are within 1.5-fold of each other in IC50: 0.566 µM for the first, 0.57 µM for the second.

Going from `O=C(Nc1ccc2oc(N3CC(N4CCC(O)CC4)C3)nc2c1)c1ccc2c(c1)CCO2` [Example 32, 2,3-Dihydro-benzofuran-5-carboxylic acid {2-[3-(4-hydroxy-piperidin-1-yl)-azetidin-1-yl]-benzooxazol-5-yl}-amide] to `O=C(Nc1ccc2oc(N3CCCC3)nc2c1)c1ccc2c(c1)CCO2` [Example 3, 2,3-Dihydro-benzofuran-5-carboxylic acid (2-pyrrolidin-1-yl-benzooxazol-5-yl)-amide], the IC50 falls from 2.41 µM to 0.899 µM (2.7-fold).

First: CN1CCOc2ccc(C(=O)Nc3ccc4oc(N5CCC56CCC6)nc4c3)cc21 [Example 179, 4-Methyl-3,4-dihydro-2H-benzo[1,4]oxazine-6-carboxylic acid [2-(1-aza-spiro[3.3]hept-1-yl)-benzooxazol-5-yl]-amide]
Second: CN1CCOc2ccc(C(=O)Nc3ccc4oc(N5CCCC5)nc4c3)cc21 [Example 183, 4-Methyl-3,4-dihydro-2H-benzo[1,4]oxazine-6-carboxylic acid (2-pyrrolidin-1-yl-benzooxazol-5-yl)-amide]
The IC50 of the first is 5-fold lower: 1.74 µM for the first, 8.7 µM for the second.

`O=C(Nc1ccc2oc(N3CCC(F)(F)CC3)nc2c1)c1ccc2c(c1)OCCO2` [Example 170, 2,3-Dihydro-benzo[1,4]dioxine-6-carboxylic acid [2-(4,4-difluoro-piperidin-1-yl)-benzooxazol-5-yl]-amide] and `O=C(Nc1ccc2oc(N3CCC34CCOC4)nc2c1)c1ccc2c(c1)OCCO2` (stereo not drawn) [Example 162, 2,3-Dihydro-benzo[1,4]dioxine-6-carboxylic acid [2-(6-oxa-1-aza-spiro[3.4]oct-1-yl)-benzooxazol-5-yl]-amide] are within 1.5-fold of each other in IC50: 0.899 µM for the first, 0.954 µM for the second.

`O=C(Nc1ccc2oc(N(C3CC3)C3COC3)nc2c1)c1ccc2c(c1)OCO2` [Example 138, Benzo[1,3]dioxole-5-carboxylic acid [2-(cyclopropyl-oxetan-3-yl-amino)-benzooxazol-5-yl]-amide] and `COC1CCN(c2nc3cc(NC(=O)c4ccc5c(c4)OCO5)ccc3o2)CC1` [Example 131, Benzo[1,3]dioxole-5-carboxylic acid [2-(4-methoxy-piperidin-1-yl)-benzooxazol-5-yl]-amide] are within 1.5-fold of each other in IC50: 1.48 µM for the first, 1.05 µM for the second.

Going from `CN(C)CC1CCN(c2nc3cc(NC(=O)c4ccc5c(c4)CCO5)ccc3s2)C1` (stereo not drawn) [Example 105, 2,3-Dihydro-benzofuran-5-carboxylic acid [2-(3-dimethylaminomethyl-pyrrolidin-1-yl)-benzothiazol-5-yl]-amide] to `O=C(Nc1ccc2sc(N3CCCCC3)nc2c1)c1ccc2c(c1)CCO2` [Example 81, 2,3-Dihydro-benzofuran-5-carboxylic acid (2-piperidin-1-yl-benzothiazol-5-yl)-amide], the IC50 falls from 14.8 µM to 2.45 µM (6-fold). The second is the more potent here.

Compared with `O=C(Nc1ccc2c(c1)CCO2)c1ccc2sc(N3CCC(F)(F)CC3)nc2c1` [Example 198, 2-(4,4-Difluoro-piperidin-1-yl)-benzothiazole-5-carboxylic acid (2,3-dihydro-benzofuran-5-yl)-amide], `O=C(Nc1ccc2oc(N3CCC4(CCO4)CC3)nc2c1)c1ccc2c(c1)CCO2` [Example 27, 2,3-Dihydro-benzofuran-5-carboxylic acid [2-(1-oxa-7-aza-spiro[3.5]non-7-yl)-benzooxazol-5-yl]-amide] is 62-fold lower in IC50: 45.2 µM for the first, 0.729 µM for the second. The second is the more potent here.

`CN1CCOc2ccc(C(=O)Nc3ccc4oc(N5CCOCC5)nc4c3)cc21` [Example 192, 4-Methyl-3,4-dihydro-2H-benzo[1,4]oxazine-6-carboxylic acid (2-morpholin-4-yl-benzooxazol-5-yl)-amide] and `CN1CCOc2ccc(C(=O)Nc3ccc4oc(N5CCCCC5)nc4c3)cc21` [Example 185, 4-Methyl-3,4-dihydro-2H-benzo[1,4]oxazine-6-carboxylic acid (2-piperidin-1-yl-benzooxazol-5-yl)-amide] are within 1.5-fold of each other in IC50: 4.32 µM for the first, 3.86 µM for the second.

First: O=C(Nc1ccc2oc(N3CCCC34COC4)nc2c1)c1ccc2c(c1)CCCO2 [Example 147, Chroman-6-carboxylic acid [2-(2-oxa-5-aza-spiro[3.4]oct-5-yl)-benzooxazol-5-yl]-amide]
Second: O=C(Nc1ccc2oc(N3CCCC3)nc2c1)c1ccc2c(c1)CCCO2 [Example 146, Chroman-6-carboxylic acid (2-pyrrolidin-1-yl-benzooxazol-5-yl)-amide]
The IC50 of the first is 8.4-fold lower: 0.379 µM for the first, 3.18 µM for the second. The first is the more potent here.

For `COCC1CCCN1c1nc2cc(NC(=O)c3ccc4c(c3)CCO4)ccc2o1` (stereo not drawn) [Example 58, 2,3-Dihydro-benzofuran-5-carboxylic acid [2-(2-methoxymethyl-pyirolidin-1-yl)-benzooxazol-5-yl]-amide], the IC50 was 1.33 µM.
